PubChem BioAssay (NCI)
“And” between values parts separate entries of the source, which are not always exact repeats. Identical values can stand only once.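 Tested at 5 concentrations; 48 h exposure; 96-well plates; endpoints linearly interpolated, else capped at highest concentration. GI50: concentration for 50% inhibition of growth. TGI: concentration producing complete growth inhibition.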

Tests used:
Assay in all cases: NCI anticancer screen, dose series, 48 h
HCC-2998 colon = system: HCC-2998 colon
HS 578T breast = system: HS 578T breast
MDA-MB-435 = system: MDA-MB-435
MOLT-4 leukemia = system: MOLT-4 leukemia
NCI-H460 lung = system: NCI-H460 lung
NCI/ADR-RES ovarian = system: NCI/ADR-RES ovarian
OVCAR-8 ovarian = system: OVCAR-8 ovarian
SF-295 CNS = system: SF-295 CNS
SK-MEL-2 melanoma = system: SK-MEL-2 melanoma
HOP-62 NSCLC = system: HOP-62 NSCLC

| SMILES | GI50 (HCC-2998 colon) | TGI (HCC-2998 colon) | GI50 (HS 578T breast) | TGI (HS 578T breast) | GI50 (MDA-MB-435) | TGI (MDA-MB-435) | GI50 (MOLT-4 leukemia) | TGI (MOLT-4 leukemia) | GI50 (NCI-H460 lung) | TGI (NCI-H460 lung) | GI50 (NCI/ADR-RES ovarian) | TGI (NCI/ADR-RES ovarian) | GI50 (OVCAR-8 ovarian) | TGI (OVCAR-8 ovarian) | GI50 (SF-295 CNS) | TGI (SF-295 CNS) | GI50 (SK-MEL-2 melanoma) | TGI (SK-MEL-2 melanoma) | TGI (HOP-62 NSCLC) | GI50 (HOP-62 NSCLC) |
| --- | --- | --- | --- | --- | --- | --- | --- | --- | --- | --- | --- | --- | --- | --- | --- | --- | --- | --- | --- | --- |
| C=CCn1c(C)nc2ccc(Nc3nc(Nc4ccc(F)cc4)nc4ccccc34)cc21 | 8.87 µM | 23.5 µM | 9.83 µM | 56.7 µM | 4 µM | 20.4 µM | 1.77 µM | 6.27 µM | 3.11 µM | 14.5 µM | 4.01 µM | 37.7 µM | 3.05 µM | 13.6 µM | 6.08 µM | 20.3 µM | 3.16 µM | 11.4 µM |  |  |
| CC(C)CCC[C@@H](C)[C@H]1CC[C@H]2[C@@H]3CC[C@H]4C[C@@H](CCC=C(c5cc(Cl)c(O)c(C(=O)O)c5)c5cc(Cl)c(O)c(C(=O)O)c5)CC[C@]4(C)[C@H]3CC[C@]12C |  | > 100 µM |  | > 100 µM |  | > 100 µM |  | > 100 µM |  | > 100 µM |  | > 100 µM |  | > 100 µM |  | > 100 µM |  | > 100 µM | > 100 µM |  |
| O=c1c2cc(F)ccc2sc2c(N3CCNCC3)nc3ccc(F)cc3c12 | 1.74 µM | 3.4 µM | 1.7 µM | 3.6 µM | 1.74 µM | 3.2 µM |  |  | 1.59 µM | 3.12 µM | 1.75 µM | 3.44 µM |  |  | 1.78 µM | 3.22 µM | 1.84 µM | 3.53 µM | 3.85 µM | 1.82 µM |
| C=CCNc1nc2c(s1)C(=O)c1ccccc1C2=O |  | 35.3 µM |  | > 100 µM |  | 3.31 µM |  | 10.6 µM |  | 28.5 µM |  | 82.8 µM |  | 20.1 µM |  | 28.2 µM |  | 25.9 µM | 26.7 µM |  |
| COC(=O)C1C(O)CCC2CN3CCc4c([nH]c5ccccc45)C3CC21 (centres undefined) |  | > 100 µM |  | > 100 µM |  | > 100 µM | > 100 µM and 14.4 µM | > 100 µM |  | > 100 µM |  | > 100 µM |  | > 100 µM |  | > 100 µM |  | > 100 µM | > 100 µM | > 100 µM |
| COc1ccc(/C=C/C(=O)/C=C/c2cc3ccccc3[nH]c2=O)cc1 | 2.19 µM | 4.13 µM | 3.14 µM | 47 µM | 2.22 µM | 5.07 µM | 3.2 µM | 9.24 µM | 4.98 µM | 20 µM | 20.5 µM | > 100 µM | 3.55 µM | 22.4 µM | 2.65 µM | 8.02 µM |  |  | 17.8 µM | 4.67 µM |
| COc1ccc(-c2ccncc2)cc1C(N)=O | > 25 µM | > 25 µM | > 25 µM | > 25 µM | > 25 µM | > 25 µM | > 25 µM | > 25 µM | > 25 µM | > 25 µM | > 25 µM | > 25 µM | > 25 µM | > 25 µM | > 25 µM | > 25 µM | > 25 µM | > 25 µM | > 25 µM | > 25 µM |
